From PMC3399817 (PLoS ONE, 2012)

Tests used:
Test in all cases: KINOMEscan
Format in all cases: binding
MAST1 = biological target: T1, MAST1 (Homo sapiens, UniProt Q9Y2H9); details: MAST1, 1 uM
T1 construct: purchased Ambit KINOMEscan (DiscoverX)
Procedure, shortened: (§1)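 Compounds were each tested at a single concentration of 1 μM in a binding-based kinase panel.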

DLK = biological target: T2, DLK (Homo sapiens, UniProt Q12852); details: 1 uM
T2 construct: purchased Ambit KINOMEscan (DiscoverX)
Procedure, shortened: as §1

PKAC-beta = biological target: T3, PKAC-beta (Homo sapiens, UniProt P22694); details: 1 uM
T3 construct: purchased Ambit KINOMEscan (DiscoverX)
Procedure, shortened: as §1

NEK5 = biological target: T4, NEK5 (Homo sapiens, UniProt Q6P3R8); details: NEK5, 1 uM
T4 construct: purchased Ambit KINOMEscan (DiscoverX)
Procedure, shortened: as §1

HIPK3 = biological target: T5, HIPK3 (Homo sapiens, UniProt Q9H422); details: HIPK3, 1 uM
T5 construct: purchased Ambit KINOMEscan (DiscoverX)
Procedure, shortened: as §1

[1] = biological target: T6, TYK2(JH1domain-catalytic) (Homo sapiens, UniProt P29597); details: 1 uM
T6 construct: TYK2(JH1domain-catalytic); purchased Ambit KINOMEscan (DiscoverX)
Procedure, shortened: as §1

SRMS = biological target: T7, SRMS (Homo sapiens, UniProt Q9H3Y6); details: 1 uM
T7 construct: purchased Ambit KINOMEscan (DiscoverX)
Procedure, shortened: as §1

SRPK2 = biological target: T8, SRPK2 (Homo sapiens, UniProt P78362); details: SRPK2, 1 uM
T8 construct: purchased Ambit KINOMEscan (DiscoverX)
Procedure, shortened: as §1

BRSK2 = biological target: T9, BRSK2 (Homo sapiens, UniProt Q8IWQ3); details: BRSK2, 1 uM
T9 construct: purchased Ambit KINOMEscan (DiscoverX)
T9 sequence (Q8IWQ3 whole entry): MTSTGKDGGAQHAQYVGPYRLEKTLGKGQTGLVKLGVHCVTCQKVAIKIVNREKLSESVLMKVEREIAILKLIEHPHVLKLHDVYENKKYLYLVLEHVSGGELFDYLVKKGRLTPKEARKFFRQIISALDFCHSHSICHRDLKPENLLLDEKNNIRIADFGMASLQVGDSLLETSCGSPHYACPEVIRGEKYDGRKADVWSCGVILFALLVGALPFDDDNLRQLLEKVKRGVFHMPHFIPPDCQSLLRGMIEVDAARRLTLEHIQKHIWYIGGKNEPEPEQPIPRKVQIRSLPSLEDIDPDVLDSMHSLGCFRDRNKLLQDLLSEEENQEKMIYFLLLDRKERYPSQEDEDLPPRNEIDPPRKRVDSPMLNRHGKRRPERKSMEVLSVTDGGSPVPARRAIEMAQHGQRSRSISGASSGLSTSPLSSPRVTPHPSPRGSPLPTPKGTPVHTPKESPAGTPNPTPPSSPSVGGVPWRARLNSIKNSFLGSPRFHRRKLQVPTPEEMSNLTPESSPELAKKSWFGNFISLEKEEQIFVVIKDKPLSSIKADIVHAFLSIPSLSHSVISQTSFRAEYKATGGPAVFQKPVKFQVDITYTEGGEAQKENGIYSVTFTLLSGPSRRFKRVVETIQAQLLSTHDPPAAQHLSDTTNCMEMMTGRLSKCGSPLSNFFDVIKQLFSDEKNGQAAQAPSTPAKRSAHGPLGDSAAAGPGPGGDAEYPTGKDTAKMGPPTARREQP
Procedure, shortened: as §1

ULK3 = biological target: T10, ULK3 (Homo sapiens, UniProt Q6PHR2); details: ULK3, 1 uM
T10 construct: purchased Ambit KINOMEscan (DiscoverX)
Procedure, shortened: as §1

TBK1 = biological target: T11, TBK1 (Homo sapiens, UniProt Q9UHD2); details: TBK1, 1 uM
T11 construct: purchased Ambit KINOMEscan (DiscoverX)
T11 sequence (Q9UHD2 whole entry): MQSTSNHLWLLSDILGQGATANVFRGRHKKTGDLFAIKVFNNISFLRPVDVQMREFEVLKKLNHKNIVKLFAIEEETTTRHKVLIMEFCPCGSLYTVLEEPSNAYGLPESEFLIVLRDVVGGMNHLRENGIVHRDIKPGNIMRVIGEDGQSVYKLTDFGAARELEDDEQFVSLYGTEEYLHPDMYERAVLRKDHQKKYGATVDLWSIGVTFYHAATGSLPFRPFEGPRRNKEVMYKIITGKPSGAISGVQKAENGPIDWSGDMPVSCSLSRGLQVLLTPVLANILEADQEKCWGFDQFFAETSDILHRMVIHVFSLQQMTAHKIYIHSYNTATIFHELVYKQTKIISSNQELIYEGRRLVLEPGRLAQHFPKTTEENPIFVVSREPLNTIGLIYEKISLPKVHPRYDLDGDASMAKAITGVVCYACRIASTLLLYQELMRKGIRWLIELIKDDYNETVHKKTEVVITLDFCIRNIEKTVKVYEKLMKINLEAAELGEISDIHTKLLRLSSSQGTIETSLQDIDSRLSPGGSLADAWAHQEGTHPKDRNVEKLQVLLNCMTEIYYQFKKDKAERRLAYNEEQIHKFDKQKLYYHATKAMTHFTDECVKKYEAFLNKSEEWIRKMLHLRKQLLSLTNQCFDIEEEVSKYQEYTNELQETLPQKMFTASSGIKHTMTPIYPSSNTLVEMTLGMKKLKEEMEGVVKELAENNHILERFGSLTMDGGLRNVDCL
Procedure, shortened: as §1

MEK2 = biological target: T12, MEK2 (Homo sapiens, UniProt P36507); details: MEK2, 1 uM
T12 construct: purchased Ambit KINOMEscan (DiscoverX)
Procedure, shortened: as §1

RIPK1 = biological target: T13, RIPK1 (Homo sapiens, UniProt Q13546); details: RIPK1, 1 uM
T13 construct: purchased Ambit KINOMEscan (DiscoverX)
Procedure, shortened: as §1

MAP4K5 = biological target: T14, MAP4K5 (Homo sapiens, UniProt Q9Y4K4); details: MAP4K5, 1 uM
T14 construct: purchased Ambit KINOMEscan (DiscoverX)
Procedure, shortened: as §1

KIT(V559D,V654A) = biological target: T15, KIT(V559D,V654A) (Homo sapiens, UniProt P10721, V559D/V654A); details: 1 uM
T15 construct: purchased Ambit KINOMEscan (DiscoverX)
Procedure, shortened: as §1

CAMK4 = biological target: T16, CAMK4 (Homo sapiens, UniProt Q16566); details: CAMK4, 1 uM
T16 construct: purchased Ambit KINOMEscan (DiscoverX)
T16 sequence (Q16566 whole entry): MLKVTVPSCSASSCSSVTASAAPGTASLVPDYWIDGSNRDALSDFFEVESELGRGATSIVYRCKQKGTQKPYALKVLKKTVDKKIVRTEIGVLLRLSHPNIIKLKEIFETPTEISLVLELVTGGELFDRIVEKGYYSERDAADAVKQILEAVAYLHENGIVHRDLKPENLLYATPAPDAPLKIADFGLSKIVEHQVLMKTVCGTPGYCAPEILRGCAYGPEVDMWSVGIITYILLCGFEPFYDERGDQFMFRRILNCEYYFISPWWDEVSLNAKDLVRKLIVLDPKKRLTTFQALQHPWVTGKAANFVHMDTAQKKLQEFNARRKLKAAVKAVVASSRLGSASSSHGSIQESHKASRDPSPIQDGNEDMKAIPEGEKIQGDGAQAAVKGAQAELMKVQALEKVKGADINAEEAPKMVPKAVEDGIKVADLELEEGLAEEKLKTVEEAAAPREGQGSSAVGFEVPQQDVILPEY
Procedure, shortened: as §1

VEGFR2 = biological target: T17, VEGFR2 (Homo sapiens, UniProt P35968); details: VEGFR2, 1 uM
T17 construct: purchased Ambit KINOMEscan (DiscoverX)
Procedure, shortened: as §1

ACVRL1 = biological target: T18, ACVRL1 (Homo sapiens, UniProt P37023); details: ACVRL1, 1 uM
T18 construct: purchased Ambit KINOMEscan (DiscoverX)
Procedure, shortened: as §1

CLK2 = biological target: T19, CLK2 (Homo sapiens, UniProt P49760); details: CLK2, 1 uM
T19 construct: purchased Ambit KINOMEscan (DiscoverX)
T19 sequence (P49760 whole entry): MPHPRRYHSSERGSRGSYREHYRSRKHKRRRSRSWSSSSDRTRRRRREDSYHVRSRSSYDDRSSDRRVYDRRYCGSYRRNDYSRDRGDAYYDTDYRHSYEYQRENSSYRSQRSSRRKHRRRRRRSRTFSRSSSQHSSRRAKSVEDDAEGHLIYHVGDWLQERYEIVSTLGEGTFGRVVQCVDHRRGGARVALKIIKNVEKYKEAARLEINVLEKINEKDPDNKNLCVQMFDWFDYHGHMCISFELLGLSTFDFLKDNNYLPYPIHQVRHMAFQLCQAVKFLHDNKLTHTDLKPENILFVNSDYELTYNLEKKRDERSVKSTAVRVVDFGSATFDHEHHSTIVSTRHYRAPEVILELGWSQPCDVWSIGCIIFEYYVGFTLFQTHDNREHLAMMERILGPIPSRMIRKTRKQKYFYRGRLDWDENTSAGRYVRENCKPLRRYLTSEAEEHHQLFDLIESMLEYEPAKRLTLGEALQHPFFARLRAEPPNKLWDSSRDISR
Procedure, shortened: as §1

PLK2 = biological target: T20, PLK2 (Homo sapiens, UniProt Q9NYY3); details: PLK2, 1 uM
T20 construct: purchased Ambit KINOMEscan (DiscoverX)
Procedure, shortened: as §1

CSNK1A1 = biological target: T21, CSNK1A1 (Homo sapiens, UniProt P48729); details: CSNK1A1, 1 uM
T21 construct: purchased Ambit KINOMEscan (DiscoverX)
Procedure, shortened: as §1

YSK4 = biological target: T22, YSK4 (Homo sapiens, UniProt Q56UN5); details: YSK4, 1 uM
T22 construct: purchased Ambit KINOMEscan (DiscoverX)
Procedure, shortened: as §1

YES = biological target: T23, YES (Homo sapiens, UniProt P07947); details: 1 uM
T23 construct: purchased Ambit KINOMEscan (DiscoverX)
Procedure, shortened: as §1

PRKG1 = biological target: T24, PRKG1 (Homo sapiens, UniProt Q13976); details: PRKG1, 1 uM
T24 construct: purchased Ambit KINOMEscan (DiscoverX)
Procedure, shortened: as §1

CAMK2A = biological target: T25, CAMK2A (Homo sapiens, UniProt Q9UQM7); details: 1 uM
T25 construct: purchased Ambit KINOMEscan (DiscoverX)
Procedure, shortened: as §1

PRKX = biological target: T26, PRKX (Homo sapiens, UniProt P51817); details: 1 uM
T26 construct: purchased Ambit KINOMEscan (DiscoverX)
Procedure, shortened: as §1

ARK5 = biological target: T27, ARK5 (Homo sapiens, UniProt O60285); details: ARK5, 1 uM
T27 construct: purchased Ambit KINOMEscan (DiscoverX)
T27 sequence (O60285 whole entry): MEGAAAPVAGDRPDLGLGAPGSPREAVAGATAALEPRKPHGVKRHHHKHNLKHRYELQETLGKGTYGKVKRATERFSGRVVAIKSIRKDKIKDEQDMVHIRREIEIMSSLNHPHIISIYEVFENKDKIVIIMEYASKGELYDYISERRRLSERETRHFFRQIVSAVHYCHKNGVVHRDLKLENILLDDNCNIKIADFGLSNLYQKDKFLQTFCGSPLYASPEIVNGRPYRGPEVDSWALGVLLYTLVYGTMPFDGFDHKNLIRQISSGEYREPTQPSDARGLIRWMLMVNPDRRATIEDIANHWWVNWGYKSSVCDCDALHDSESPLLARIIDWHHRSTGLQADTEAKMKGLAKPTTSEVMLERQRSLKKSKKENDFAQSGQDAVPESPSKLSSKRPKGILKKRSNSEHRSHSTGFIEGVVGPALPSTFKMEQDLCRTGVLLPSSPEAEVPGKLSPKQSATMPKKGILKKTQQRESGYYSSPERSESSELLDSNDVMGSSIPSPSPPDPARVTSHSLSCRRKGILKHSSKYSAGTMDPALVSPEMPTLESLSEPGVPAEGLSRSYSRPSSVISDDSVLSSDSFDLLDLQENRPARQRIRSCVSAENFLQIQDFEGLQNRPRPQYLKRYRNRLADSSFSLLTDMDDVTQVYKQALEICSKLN
Procedure, shortened: as §1

LKB1 = biological target: T28, LKB1 (Homo sapiens, UniProt Q15831); details: LKB1, 1 uM
T28 construct: purchased Ambit KINOMEscan (DiscoverX)
Procedure, shortened: as §1

ERK3 = biological target: T29, ERK3 (Homo sapiens, UniProt Q16659); details: ERK3, 1 uM
T29 construct: purchased Ambit KINOMEscan (DiscoverX)
Procedure, shortened: as §1

TNK2 = biological target: T30, TNK2 (Homo sapiens, UniProt Q07912); details: TNK2, 1 uM
T30 construct: purchased Ambit KINOMEscan (DiscoverX)
Procedure, shortened: as §1

MET(Y1235D) = biological target: T31, MET(Y1235D) (Homo sapiens, UniProt P08581, Y1235D); details: 1 uM
T31 construct: purchased Ambit KINOMEscan (DiscoverX)
T31 sequence (P08581 25-1390 Y1235D): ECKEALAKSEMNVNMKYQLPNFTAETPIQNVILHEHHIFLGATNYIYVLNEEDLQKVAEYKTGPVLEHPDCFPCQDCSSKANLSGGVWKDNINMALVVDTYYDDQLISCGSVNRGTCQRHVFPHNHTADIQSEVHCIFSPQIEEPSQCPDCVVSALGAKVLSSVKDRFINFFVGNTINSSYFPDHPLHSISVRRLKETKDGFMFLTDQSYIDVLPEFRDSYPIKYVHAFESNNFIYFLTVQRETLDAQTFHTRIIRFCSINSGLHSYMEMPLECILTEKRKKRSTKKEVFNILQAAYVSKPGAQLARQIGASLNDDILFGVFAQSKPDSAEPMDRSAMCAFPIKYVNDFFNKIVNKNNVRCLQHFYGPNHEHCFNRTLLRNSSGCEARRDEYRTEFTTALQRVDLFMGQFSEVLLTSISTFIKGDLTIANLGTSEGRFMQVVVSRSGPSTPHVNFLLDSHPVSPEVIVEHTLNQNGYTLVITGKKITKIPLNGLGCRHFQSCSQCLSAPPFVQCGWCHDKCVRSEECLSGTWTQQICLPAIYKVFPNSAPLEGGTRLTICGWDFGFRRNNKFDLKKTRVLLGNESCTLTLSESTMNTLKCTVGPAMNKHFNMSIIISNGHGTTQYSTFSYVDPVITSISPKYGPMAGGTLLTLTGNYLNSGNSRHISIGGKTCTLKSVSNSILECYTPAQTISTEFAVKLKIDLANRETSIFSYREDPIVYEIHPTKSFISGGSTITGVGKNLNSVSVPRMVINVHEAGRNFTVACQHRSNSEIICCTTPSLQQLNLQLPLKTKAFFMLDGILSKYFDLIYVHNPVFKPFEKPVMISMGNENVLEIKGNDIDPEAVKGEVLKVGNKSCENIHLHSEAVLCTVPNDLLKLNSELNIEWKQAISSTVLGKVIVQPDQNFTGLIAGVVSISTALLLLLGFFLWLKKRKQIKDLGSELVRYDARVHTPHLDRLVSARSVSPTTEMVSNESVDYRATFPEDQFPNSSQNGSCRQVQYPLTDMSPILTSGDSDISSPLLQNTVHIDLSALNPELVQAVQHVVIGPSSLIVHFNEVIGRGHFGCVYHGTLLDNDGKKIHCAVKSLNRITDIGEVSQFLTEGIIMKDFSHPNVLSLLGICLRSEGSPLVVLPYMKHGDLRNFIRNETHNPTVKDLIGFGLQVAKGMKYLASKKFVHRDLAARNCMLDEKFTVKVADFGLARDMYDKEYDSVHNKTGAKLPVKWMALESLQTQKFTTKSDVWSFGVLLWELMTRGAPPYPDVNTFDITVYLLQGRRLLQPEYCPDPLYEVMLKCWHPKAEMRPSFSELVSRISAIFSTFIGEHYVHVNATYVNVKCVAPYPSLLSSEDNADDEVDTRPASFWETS
Procedure, shortened: as §1

JNK3 = biological target: T32, JNK3 (Homo sapiens, UniProt P53779); details: JNK3, 1 uM
T32 construct: purchased Ambit KINOMEscan (DiscoverX)
T32 sequence (P53779 whole entry): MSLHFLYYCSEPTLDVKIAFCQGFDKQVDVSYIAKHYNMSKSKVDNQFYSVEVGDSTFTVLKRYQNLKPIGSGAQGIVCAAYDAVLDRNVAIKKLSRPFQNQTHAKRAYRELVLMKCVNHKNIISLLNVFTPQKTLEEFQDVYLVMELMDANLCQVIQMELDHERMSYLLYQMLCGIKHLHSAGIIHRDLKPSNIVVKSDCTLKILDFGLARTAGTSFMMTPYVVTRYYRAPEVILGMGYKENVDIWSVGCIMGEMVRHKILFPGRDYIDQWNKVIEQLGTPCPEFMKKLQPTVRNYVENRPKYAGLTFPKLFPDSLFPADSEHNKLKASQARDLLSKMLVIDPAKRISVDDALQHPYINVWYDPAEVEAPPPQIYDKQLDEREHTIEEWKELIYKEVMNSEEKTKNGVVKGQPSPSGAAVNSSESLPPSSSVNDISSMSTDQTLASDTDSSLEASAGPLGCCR
Procedure, shortened: as §1

PIK4CB = biological target: T33, PIK4CB (Homo sapiens, UniProt Q9UBF8); details: 1 uM
T33 construct: purchased Ambit KINOMEscan (DiscoverX)
Procedure, shortened: as §1

EGFR(L858R) = biological target: T34, EGFR(L858R) (Homo sapiens, UniProt P00533, L858R); details: 1 uM
T34 construct: purchased Ambit KINOMEscan (DiscoverX)
Procedure, shortened: as §1

IRAK3 = biological target: T35, IRAK3 (Homo sapiens, UniProt Q9Y616); details: IRAK3, 1 uM
T35 construct: purchased Ambit KINOMEscan (DiscoverX)
Procedure, shortened: as §1

PRKR = biological target: T36, PRKR (Homo sapiens, UniProt P19525); details: 1 uM
T36 construct: purchased Ambit KINOMEscan (DiscoverX)
Procedure, shortened: as §1

Structure (SMILES) | % binding compared to no inhibitor control (MAST1) | % binding compared to no inhibitor control (DLK) | % binding compared to no inhibitor control (PKAC-beta) | % binding compared to no inhibitor control (NEK5) | % binding compared to no inhibitor control (HIPK3) | % binding compared to no inhibitor control [1] | % binding compared to no inhibitor control (SRMS) | % binding compared to no inhibitor control (SRPK2) | % binding compared to no inhibitor control (BRSK2) | % binding compared to no inhibitor control (ULK3) | % binding compared to no inhibitor control (TBK1) | % binding compared to no inhibitor control (MEK2) | % binding compared to no inhibitor control (RIPK1) | % binding compared to no inhibitor control (MAP4K5) | % binding compared to no inhibitor control (KIT(V559D,V654A)) | % binding compared to no inhibitor control (CAMK4) | % binding compared to no inhibitor control (VEGFR2) | % binding compared to no inhibitor control (ACVRL1) | % binding compared to no inhibitor control (CLK2) | % binding compared to no inhibitor control (PLK2) | also measured
COc1ccc(-c2cc3nccn3c(Nc3ncccc3C(N)=O)n2)cc1OC.Cl.Cl [BAY61-3606, 2-[7-(3,4-dimethoxyphenyl)-imidazo [1,2-c]pyrimidin-5-ylamino] nicotinamide dihydrochloride, reference compound] | 52% | 87% | 76% | 86% | 36% | 99% | 65% | 53% | 84% | 51% | 47% | 86% | 86% | 80% | 71% | 100% | 94% | 100% | 12% | 50% | % binding compared to no inhibitor control (CSNK1A1): 100%; % binding compared to no inhibitor control (YSK4): 1.8%; % binding compared to no inhibitor control (YES): 96%; % binding compared to no inhibitor control (PRKG1): 70%; % binding compared to no inhibitor control (CAMK2A): 64%; % binding compared to no inhibitor control (PRKX): 75%; % binding compared to no inhibitor control (ARK5): 62%; % binding compared to no inhibitor control (LKB1): 95%; % binding compared to no inhibitor control (ERK3): 73%; % binding compared to no inhibitor control (TNK2): 96%; % binding compared to no inhibitor control (MET(Y1235D)): 100%; % binding compared to no inhibitor control (JNK3): 41%; % binding compared to no inhibitor control (PIK4CB): 24%; % binding compared to no inhibitor control (EGFR(L858R)): 100%; % binding compared to no inhibitor control (IRAK3): 16%; % binding compared to no inhibitor control (PRKR): 27%
COc1ccccc1Nc1nc(-c2ccc(OC)c(OC)c2)cc2nccn12 [BAY derivative 6] | 74% | 100% | 95% | 72% | 95% | 25% | 97% | 90% | 100% | 100% | 100% | 100% | 100% | 100% | 100% | 100% | 100% | 100% | 63% | 100% | % binding compared to no inhibitor control (CSNK1A1): 100%; % binding compared to no inhibitor control (YSK4): 60%; % binding compared to no inhibitor control (YES): 57%; % binding compared to no inhibitor control (PRKG1): 100%; % binding compared to no inhibitor control (CAMK2A): 96%; % binding compared to no inhibitor control (PRKX): 73%; % binding compared to no inhibitor control (ARK5): 93%; % binding compared to no inhibitor control (LKB1): 72%; % binding compared to no inhibitor control (ERK3): 88%; % binding compared to no inhibitor control (TNK2): 53%; % binding compared to no inhibitor control (MET(Y1235D)): 100%; % binding compared to no inhibitor control (JNK3): 100%; % binding compared to no inhibitor control (PIK4CB): 100%; % binding compared to no inhibitor control (EGFR(L858R)): 88%; % binding compared to no inhibitor control (IRAK3): 57%; % binding compared to no inhibitor control (PRKR): 100%
